Assay results: the NIST ThermoML archive (doi:10.1021/je9005618)

Experiment: xn = mol fraction of the nth substance listed
Conditions: 101 kPa, Liquid

CCn1cc[n+](C)c1.O=S(=O)([O-])C(F)(F)F [1-ethyl-3-methylimidazolium trifluoromethanesulfonate] + CCOC(C)=O
Conditions | mass density [kg/m3] | speed of sound [m/s]
278.15 K, x1 = 0.0501 | 967.32 | 1238
278.15 K, x1 = 0.1003 | 1011.38 | 1249
278.15 K, x1 = 0.1502 | 1051.15 | 1263.8
278.15 K, x1 = 0.2004 | 1087.57 | 1280.5
278.15 K, x1 = 0.3002 | 1150.92 | 1313.9
278.15 K, x1 = 0.4002 | 1203.84 | 1343.7
278.15 K, x1 = 0.5002 | 1248.95 | 1371.2
278.15 K, x1 = 0.6009 | 1288.17 | 1397
278.15 K, x1 = 0.6999 | 1321.89 | 1420.5
278.15 K, x1 = 0.8006 | 1351.91 | 1442.8
278.15 K, x1 = 0.8492 | 1365.02 | 1453
278.15 K, x1 = 0.9008 | 1378.11 | 1463.2
278.15 K, x1 = 0.9501 | 1389.89 | 1472.6
288.15 K, x1 = 0.0501 | 955.66 | 1193.7
288.15 K, x1 = 0.1003 | 999.99 | 1206.1
288.15 K, x1 = 0.1502 | 1040.09 | 1222.8
288.15 K, x1 = 0.2004 | 1076.84 | 1241.5
288.15 K, x1 = 0.3002 | 1140.7 | 1278.8
288.15 K, x1 = 0.4002 | 1194.03 | 1311.7
288.15 K, x1 = 0.5002 | 1239.47 | 1341.6
288.15 K, x1 = 0.6009 | 1278.96 | 1369.4
288.15 K, x1 = 0.6999 | 1312.9 | 1394
288.15 K, x1 = 0.8006 | 1343.1 | 1417.9
288.15 K, x1 = 0.8492 | 1356.29 | 1428.6
288.15 K, x1 = 0.9008 | 1369.47 | 1439.3
288.15 K, x1 = 0.9501 | 1381.32 | 1449
298.15 K, x1 = 0.0501 | 943.87 | 1150
298.15 K, x1 = 0.1003 | 988.52 | 1163.9
298.15 K, x1 = 0.1502 | 1028.97 | 1182.5
298.15 K, x1 = 0.2004 | 1066.05 | 1203
298.15 K, x1 = 0.3002 | 1130.49 | 1244.2
298.15 K, x1 = 0.4002 | 1184.26 | 1280.4
298.15 K, x1 = 0.5002 | 1230.04 | 1312.7
298.15 K, x1 = 0.6009 | 1269.8 | 1342.4
298.15 K, x1 = 0.6999 | 1303.96 | 1369
298.15 K, x1 = 0.8006 | 1334.35 | 1393.7
298.15 K, x1 = 0.8492 | 1347.63 | 1404.8
298.15 K, x1 = 0.9008 | 1360.89 | 1416
298.15 K, x1 = 0.9501 | 1372.81 | 1426
308.15 K, x1 = 0.0501 | 931.96 | 1106.8
308.15 K, x1 = 0.1003 | 976.94 | 1121.8
308.15 K, x1 = 0.1502 | 1017.77 | 1142.2
308.15 K, x1 = 0.2004 | 1055.22 | 1165.1
308.15 K, x1 = 0.3002 | 1120.28 | 1210.2
308.15 K, x1 = 0.4002 | 1174.52 | 1249.5
308.15 K, x1 = 0.5002 | 1220.67 | 1284.4
308.15 K, x1 = 0.6009 | 1260.71 | 1316
308.15 K, x1 = 0.6999 | 1295.11 | 1344.2
308.15 K, x1 = 0.8006 | 1325.68 | 1370
308.15 K, x1 = 0.8492 | 1339.04 | 1381.6
308.15 K, x1 = 0.9008 | 1352.38 | 1393.2
308.15 K, x1 = 0.9501 | 1364.37 | 1403.6
318.15 K, x1 = 0.0501 | 919.88 | 1063.9
318.15 K, x1 = 0.1003 | 965.24 | 1080.1
318.15 K, x1 = 0.1502 | 1006.48 | 1102.3
318.15 K, x1 = 0.2004 | 1044.34 | 1127.3
318.15 K, x1 = 0.3002 | 1110.07 | 1176.5
318.15 K, x1 = 0.4002 | 1164.82 | 1219
318.15 K, x1 = 0.5002 | 1211.35 | 1256.6
318.15 K, x1 = 0.6009 | 1251.69 | 1290.1
318.15 K, x1 = 0.6999 | 1286.31 | 1319.8
318.15 K, x1 = 0.8006 | 1317.07 | 1346.8
318.15 K, x1 = 0.8492 | 1330.51 | 1358.8
318.15 K, x1 = 0.9008 | 1343.92 | 1370.8
318.15 K, x1 = 0.9501 | 1355.98 | 1381.6
328.15 K, x1 = 0.0501 | 907.62 | 1021.3
328.15 K, x1 = 0.1003 | 953.35 | 1039.2
328.15 K, x1 = 0.1502 | 995.07 | 1062.7
328.15 K, x1 = 0.2004 | 1033.39 | 1090
328.15 K, x1 = 0.3002 | 1099.87 | 1143.3
328.15 K, x1 = 0.4002 | 1155.15 | 1189.3
328.15 K, x1 = 0.5002 | 1202.08 | 1229.4
328.15 K, x1 = 0.6009 | 1242.72 | 1264.9
328.15 K, x1 = 0.6999 | 1277.58 | 1296
328.15 K, x1 = 0.8006 | 1308.52 | 1324.1
328.15 K, x1 = 0.8492 | 1322.04 | 1336.5
328.15 K, x1 = 0.9008 | 1335.52 | 1348.9
328.15 K, x1 = 0.9501 | 1347.65 | 1360.1

CCn1cc[n+](C)c1.O=S(=O)([O-])C(F)(F)F [1-ethyl-3-methylimidazolium trifluoromethanesulfonate] + COC(C)=O
Conditions | mass density, 278.15 K [kg/m3] | mass density, 288.15 K [kg/m3] | mass density, 298.15 K [kg/m3] | mass density, 308.15 K [kg/m3] | mass density, 318.15 K [kg/m3] | speed of sound, 278.15 K [m/s] | speed of sound, 288.15 K [m/s] | speed of sound, 298.15 K [m/s] | speed of sound, 308.15 K [m/s] | speed of sound, 318.15 K [m/s]
x1 = 0.0502 | 1010.1 | 997.8 | 985.37 | 972.78 | 960.03 | 1259.8 | 1215.5 | 1171.7 | 1128.2 | 1084.8
x1 = 0.1006 | 1058.3 | 1046.52 | 1034.65 | 1022.69 | 1010.6 | 1278.4 | 1236.5 | 1195.1 | 1153.8 | 1112.8
x1 = 0.1501 | 1099.41 | 1088.09 | 1076.72 | 1065.29 | 1053.78 | 1298.1 | 1258.5 | 1219.4 | 1180.5 | 1141.9
x1 = 0.2001 | 1135.42 | 1124.48 | 1113.53 | 1102.55 | 1091.53 | 1316.6 | 1279.2 | 1242.4 | 1205.9 | 1169.7
x1 = 0.3003 | 1196.62 | 1186.31 | 1176.03 | 1165.76 | 1155.5 | 1350.2 | 1316.6 | 1283.5 | 1250.8 | 1218.7
x1 = 0.3999 | 1243.17 | 1233.3 | 1223.49 | 1213.71 | 1203.97 | 1376.9 | 1346 | 1315.8 | 1285.9 | 1256.7
x1 = 0.4997 | 1281.71 | 1272.18 | 1262.72 | 1253.32 | 1243.97 | 1400 | 1371.2 | 1343 | 1315.5 | 1288.5
x1 = 0.6 | 1313.96 | 1304.71 | 1295.53 | 1286.43 | 1277.38 | 1420.4 | 1393.3 | 1366.8 | 1340.9 | 1315.6
x1 = 0.7 | 1341.07 | 1332.05 | 1323.1 | 1314.23 | 1305.42 | 1438.5 | 1412.7 | 1387.6 | 1362.9 | 1338.9
x1 = 0.7986 | 1363.97 | 1355.14 | 1346.39 | 1337.7 | 1329.08 | 1454.4 | 1429.7 | 1405.6 | 1382 | 1358.9
x1 = 0.8509 | 1374.9 | 1366.17 | 1357.51 | 1348.91 | 1340.38 | 1462.2 | 1438 | 1414.4 | 1391.2 | 1368.6
x1 = 0.9008 | 1384.25 | 1375.61 | 1367.03 | 1358.51 | 1350.04 | 1469.1 | 1445.3 | 1422 | 1399.2 | 1377
x1 = 0.9504 | 1393.09 | 1384.52 | 1376.02 | 1367.58 | 1359.19 | 1475.6 | 1452 | 1429.1 | 1406.7 | 1384.8
